{"source": "patent US7652037B2", "about": "“Methods of lowering lipid levels in a mammal” (City Of Hope, priority 2003, dated 2010)", "key": {"STZ-Diabetic Rats [1]": {"system": "STZ-Diabetic Rats", "assay": "AGEs/ALEs (CML, CEL) in skin collagen by LC-ESI/MS/MS (Example 12)", "assay_type": "in vivo, rat", "description": "Tail tendon collagen was isolated from each rat in Example 11 and the degree of AGE formation in collagen was assessed by measurement of fluorescent AGE after enzymatic digestion. Figarola et al., Diabetologia 46:1140-115, 2003. Skin collagen isolation and reduction was performed as described in Shaw et al., Methods Mol. Biol. 186:129-137, 2002. Levels of AGEs/ALEs were normalized to the lysine content of the collagen samples.\nIon-pair reversed-phase liquid chromatography/tandem mass spectroscopy analysis was performed using an Agilent Technologies™ LC1100 series system interfaced to a Micromass Quatro™ Ultima Triple Quadripole Mass Spectrometer. HPLC separation was achieved using a Phenomenex Synergi™ Hydro-RP […] 80A 150×2.0 mm column preceded by a Phenomenex C18 guard column. The column temperature was maintained at 25° C. and the flow was 0.2 mL/minute. The isocratic mobile phase consisted of 10% acetonitrile and 0.1% heptafluorobutyric acid in water. Total run time was 12 minutes; injection volume was 20 μL. The autoinjector temperature was 5° C. The electrospray ionization source of the mass spectrophotometer was operated in the positive ion mode with a cone gas flow of 190 L/hour and desolvation gas flow of 550 L/hour. The capillary voltage was set to 2.7 kV. Cone and collision cell voltages were optimized to 25 V and 13 eV for CML, 33 V and 12 eV d4CML, 24 V and 14 eV for CEL, […] and 14 eV for D8CEL, and […] and 16 eV for lysine, respectively. […] The desolvation temperature was increased to 300° C., and the solvent delay program was used from 0 to 3 minutes and 10 to 12 minutes. The fragmentation of these compounds can be induced under collision dissociation conditions and acidic mobile phase. The precursor→product ion combinations at m/z were 205.1→130.11 for CML, 209.12→134.12 for d4CML, 219.11→130.11 for CEL, 227.18→138.16 for d8CEL, 147.15→84.21 for lysine and 151.27→88.33 for DL-d4Lysine were used in multiple reaction monitoring (MRM) mode to determine these compounds. MassLynx™ version 3.5 software was used for data acquisition and processing.\nAll solutions of standards and internal standards were prepared in water. Standard solution containing both CML and CEL were prepared at six concentrations: 4, 10, 20, 40, 100 and 200 pmol/mL for CML and 2, 5, 10, 20, 50 and 100 pmol/mL for CEL. Quality control solutions were prepared at two concentrations: 7.5 and 150 pmol/mL for CML and 3.75 and 75 pmol/mL for CEL. A stock solution of heavy-labeled internal standards (d4CML and d8CEL) was prepared at 800 pmol/mL. For generation of a standard curve, 130 μL of standard solution was freshly mixed with 10 μL 0.1 M ammonium bicarbonate, 10 μL 0.05% HFBA and 10 μL internal standard stock solution to give a caliber. […]"}, "STZ-Diabetic Rats [2]": {"system": "STZ-Diabetic Rats", "assay": "Nitrotyrosine staining of kidney", "assay_type": "in vivo, rat", "description": "Nitrotyrosine, a marker for protein oxidation, was used as an index of oxidative tissue damage caused by reactive nitrogen species. Immunohistochemical detection of nitrotyrosine was performed as reported previously (Forbes et al., Diabetes 51:3274-3282, 2002) and followed in this study with little modification. Briefly, formalin-fixed kidney sections (5 μm thick), taken from representative rats from each treatment group at 32 weeks, were mounted on slides, dewaxed and hydrated. After incubation with Proteinase K for 10 minutes, sections were incubated in 3% hydrogen peroxide for 20 minutes, blocked with normal porcine serum for 20 minutes, and then stained with commercially available rabbit polyclonal anti-nitrotyrosine antibodies for 1 hour. After rinsing with DAKO rinse buffer, sections were incubated with biotinylated anti-rabbit IgG for 25 minutes, followed by incubation with avidin-biotin horseradish peroxidase complex for 25 minutes."}}, "data": [{"compound": "CC(C)(Oc1ccc(NC(=O)c2ccc3ccccc3c2)cc1)C(=O)O", "note": "[LR-9, 4-(2-napthylcarboxamido) phenoxyisobutyric acid]", "values": [{"measurement": "CEL concentration in skin collagen", "setting": "STZ-Diabetic Rats [1]", "result": "significantly limited the increase"}, {"measurement": "CML concentration in skin collagen", "setting": "STZ-Diabetic Rats [1]", "result": "significantly limited the increase"}]}, {"compound": "CC(Oc1cccc2cccnc12)C(=O)O", "note": "(centres unmarked) [LR-74, 2-(8-quinolinoxy) propionic acid]", "values": [{"measurement": "CEL concentration in skin collagen", "setting": "STZ-Diabetic Rats [1]", "result": "significantly limited the increase"}, {"measurement": "CML concentration in skin collagen", "setting": "STZ-Diabetic Rats [1]", "result": "significantly limited the increase"}]}, {"compound": "methylene bis(4,4′-(2-chlorophenylureidophenoxyisobutyric acid) [LR-90]", "values": [{"measurement": "nitrotyrosine staining in renal cortical tubules", "setting": "STZ-Diabetic Rats [2]", "result": "decreased the overall oxidative damage"}]}]}
